Data as given in publication PMC12196494, “Application of Solvent Evaporation to Generate Supersaturated Lipid-Based Formulations: Investigation of Drug Load and Formulation Quality” (Pharmaceutics, 2025).
≈ marks a conversion by molar mass, not a printed value. Read-outs that look alike come from different tables or passages of the source. Blank lines part the entries; values can stand above or below the compound they belong to.

Tests used:
[1] = for Stability: celecoxib in LCM
[2] = cited from earlier work; for Drug load, % of the equilibrium solubility at 37 °C: supersaturated type I and type II LBFs
[3] = cited from earlier work
[4] = MCT and LCM formulations, polarized light, Figure 1A-D
Source text: For selected samples where precipitation was visible, a few droplets (enough volume to cover the area of a quartz microscope slide covered by a cover slip) were taken from the middle of the vial using a plastic pipette, and the crystallinity was confirmed by using a ZEISS Axio Vert.A1 microscope with polarized light function (Jena, Germany).

[5] = Solubility studies in lipid-based formulations (MCT, LCM) at different temperatures; format: physicochemical; details: for solubility: oil or lipid, thermodynamic from solid, n = 3, mean ± SD
Experimental: In the case that the added compound was dissolved during incubation, more compound was added. After incubation, the samples were centrifuged in an Eppendorf centrifuge 5430R (Hamburg, Germany) for 30 min at 17,500 rpm (=30,130 rcf) at either 20 °C (samples incubated at ambient temperature), 37 °C (samples incubated at 37 °C), or 40 °C (samples incubated at 60 °C). The supernatant was diluted and further analyzed by UPLC-UV, as described below.
The supernatants obtained from the solubility studies were diluted 1:50 with tetrahydrofuran, which was further diluted 1:100 with acetonitrile. […] This final dilution was analyzed by using an Acquity (UPLC™) H-class system composed of a quaternity solvent manager, a photodiode array (PDA) detector, a sample manager, and the Empower® software (version 3.0) for data processing. For the chromatographic analysis, a reversed-phase Waters Acquity BEH C18 with a 50 mm × 2.1 mm column (particle size 1.7 μm) including a precolumn (Waters Acquity BEH C18, 5 mm * 2.1 mm, particle size 1.7 μm) (Waters, Milford, CT, USA) was used.
The statistical analysis was performed using GraphPad Prism, Version 9.5.1.

hamsters = system: hamsters; set-up: method as in PMID 33387565; details: doses of 1000–4000 ppm DCM; cited from earlier work
mice = system: mice; set-up: method as in PMID 33387565; details: doses of 1000–4000 ppm DCM; cited from earlier work
rats = system: rats; set-up: method as in PMID 33387565; details: doses of 1000–4000 ppm DCM; cited from earlier work

- Stability ([1]; DCM 1 + 2, stored at ambient): 7 to 14 days
- Stability ([1]; DCM 1 + 4, stored at ambient, n = 1): 7 to 14 days
- Drug load relative to the solubility at ambient temperature ([1]; solvent-based approach, DCM evaporation): up to 475%
- Solid state of the precipitate from the formulations [4]: crystalline
- Ratio of solubility 60 °C/Ambient temperature ([5]; LCM): 2.38 ± 0.04
- Ratio of solubility 60 °C/Ambient temperature ([5]; MCT): 1.85 ± 0.03
- solubility ([5]; long-chain monoglyceride (Maisine CC), Maisine CC, 37 °C, read-out: Solubility LCM): 15.57 ± 0.09 mg/mL (≈ 40.8 mM)
- solubility ([5]; long-chain monoglyceride (Maisine CC), Maisine CC, 60 °C, read-out: Solubility LCM): 24.6 ± 0.36 mg/mL (≈ 64.4 mM)
- solubility ([5]; long-chain monoglyceride (Maisine CC), Maisine CC, ambient temperature (~21 °C), read-out: Solubility LCM): 10.34 ± 0.08 mg/mL (≈ 27.1 mM)
- solubility ([5]; medium-chain triglyceride (Labrafac Lipophile WL1349), medium-chain triglyceride, 37 °C, read-out: Solubility MCT): 11.3 ± 0.05 mg/mL (≈ 29.6 mM)
- solubility ([5]; medium-chain triglyceride (Labrafac Lipophile WL1349), medium-chain triglyceride, 60 °C, read-out: Solubility MCT): 14.3 ± 0.25 mg/mL (≈ 37.5 mM)
- solubility ([5]; medium-chain triglyceride (Labrafac Lipophile WL1349), medium-chain triglyceride, ambient temperature (~21 °C), read-out: Solubility MCT): 7.72 ± 0.16 mg/mL (≈ 20.2 mM)
- Supersaturation ratio between 60 °C and ambient temperature ([5]; range over MCT and LCM): 1.85–2.38
- Drug load relative to the solubility at ambient temperature ([5]; supersaturation induced by heat (60 °C)): 238%
SMILES: Cc1ccc(-c2cc(C(F)(F)F)nn2-c2ccc(S(N)(=O)=O)cc2)cc1 [Celecoxib, celecoxib]
- Precipitation ([1]; celecoxib content of 371% or higher, both vehicles, stored at ambient): visible precipitation already within a timeframe of a few days
- Time to precipitation ([2]; heat-induced supersaturated type I and type II LBFs, in most cases): ≤ 14 days
- Drug load, % of the equilibrium solubility at 37 °C [2]: ≤ 136%
- log P [3]: 4.3

SMILES: ClCCl [DCM, dichloromethane]
- Risk for malignant tumors (hamsters): not in rats and hamsters
- Risk for malignant tumors (mice): increased risk for malignant tumors
- Risk for malignant tumors (rats): not in rats and hamsters

SMILES: CC(C)OC(=O)C(C)(C)Oc1ccc(C(=O)c2ccc(Cl)cc2)cc1 [Fenofibrate, fenofibrate]
- Time of storage to crystallization ([2]; heat-induced supersaturated LBF of MCT and phospholipids, prepared at 65 °C, stored at 20–23 °C): nine weeks

SMILES: C(=C\c1ccccc1)/CN1CCN(C(c2ccccc2)c2ccccc2)CC1 [cinnarizine]
- Drug load, % of the equilibrium solubility at 37 °C [2]: up to 138%

SMILES: CC(C)Cc1ccc(C(C)C(=O)O)cc1 (stereo not drawn) [ibuprofen]
- Time stable ([2]; some ibuprofen-loaded solid LBFs): up to 9 months
